Tests used:
LNCAP = test: MTT cell viability assay, LNCAP; assay type: cell-based, human; conditions: Homo sapiens, 72 h, Prostate, 3 days culture
Description: (§1) 26 cancer cell lines were grown in normal growth medium in the presence of different concentrations Icaritin or Desmethylicaritin. After culture for 3 days, the cell viability was then measured by an MTT assay. […] Some EC50s were lower than 10 uM for these two compounds. […] Whereas, normal human mammary gland epithelial cells (MCF10A) were not sensitive to Icaritin and Desmethylicaritin. These cells grew well when treated with these two compounds at a concentration of 50 uM.

D145 = test: MTT cell viability assay, D145; assay type: cell-based, human; conditions: Homo sapiens, 72 h, D145, Prostate, 3 days culture
Description: as §1

PC3 = test: MTT cell viability assay, PC3; assay type: cell-based, human; conditions: Homo sapiens, PC-3, 72 h, PC3, Prostate, 3 days culture
Description: as §1

Widr = test: MTT cell viability assay, Widr; assay type: cell-based, human; conditions: Homo sapiens, 72 h, Colon, 3 days culture
Description: as §1

HT29 = test: MTT cell viability assay, HT29; assay type: cell-based, human; conditions: Homo sapiens, HT-29, 72 h, HT29, Colon, 3 days culture
Description: as §1

CCL-247 = test: MTT cell viability assay, CCL-247; assay type: cell-based, human; conditions: Homo sapiens, 72 h, CCL-247, Colon, 3 days culture
Description: as §1

MDA-MB-435 = test: MTT cell viability assay, MDA-MB-435; assay type: cell-based, human; conditions: Homo sapiens, 72 h, MDA-MB-435, Breast, 3 days culture
Description: as §1

BT-549 = test: MTT cell viability assay, BT-549; assay type: cell-based, human; conditions: Homo sapiens, 72 h, BT-549, Breast, 3 days culture
Description: as §1

MCF-7 = test: MTT cell viability assay, MCF-7; assay type: cell-based, human; conditions: Homo sapiens, MCF7, 72 h, MCF-7, Breast, 3 days culture
Description: as §1

Caki-1 = test: MTT cell viability assay, Caki-1; assay type: cell-based, human; conditions: Homo sapiens, 72 h, Caki-1, Kidney, 3 days culture
Description: as §1

ACHN = test: MTT cell viability assay, ACHN; assay type: cell-based, human; conditions: Homo sapiens, 72 h, Kidney, 3 days culture
Description: as §1

SN12C = test: MTT cell viability assay, SN12C; assay type: cell-based, human; conditions: Homo sapiens, 72 h, Kidney, 3 days culture
Description: as §1

SKOV3 = test: MTT cell viability assay, SKOV3; assay type: cell-based, human; conditions: Homo sapiens, SK-OV-3, 72 h, SKOV3, Ovary, 3 days culture
Description: as §1

IGROV1 = test: MTT cell viability assay, IGROV1; assay type: cell-based, human; conditions: Homo sapiens, IGROV-1, 72 h, IGROV1, Ovary, 3 days culture
Description: as §1

Mid PaCa-2 = test: MTT cell viability assay, Mid PaCa-2; assay type: cell-based, human; conditions: Homo sapiens, 72 h, Mid PaCa-2, Pancreas, 3 days culture
Description: as §1

SK-MEL-5 = test: MTT cell viability assay, SK-MEL-5; assay type: cell-based, human; conditions: Homo sapiens, 72 h, SK-MEL-5, Skin, 3 days culture
Description: as §1

G-361 = test: MTT cell viability assay, G-361; assay type: cell-based, human; conditions: Homo sapiens, 72 h, G-361, Skin, 3 days culture
Description: as §1

Raji = test: MTT cell viability assay, Raji; assay type: cell-based, human; conditions: Homo sapiens, 72 h, Lymphoma, 3 days culture
Description: as §1

Jurkat T cell = test: MTT cell viability assay, Jurkat T cell; assay type: cell-based, human; conditions: Homo sapiens, 72 h, Leukemia, 3 days culture
Description: as §1

[1] = test system: FAS protein levels in LNCaP cells; test: Western blot analysis for FAS protein levels; assay type: cell-based, human
[2] = test system: human micro vessel endothelial cell (HMVECs); test: HMVEC proliferation assay; assay type: cell-based
Description: Icaritin is a potent inhibitor of angiogenesis. Inhibition of human micro vessel endothelial cell (HMVECs) proliferation by Icaritin was investigated. HMVEC proliferation in response to Icaritin was determined using a modified method from previously described procedures. Briefly, HMVECs fed 1 day before use (with a fresh media exchange to obtain optimal growth conditions) were trypsinized and resuspended at 5×10^4 cells/ml in EBM (Clonetics)+2% FBS+gentamicin. An equivalent number of cells (2.5×10^3) in 50 μl cell suspension was plated nonconfluently onto each well of a 96-well plate and allowed to adhere for 4 h at 37° C. Serial Icaritin dilutions were prepared in this media at 3× concentration, of which 50 μl was added to the 100 μl cell suspension already in the wells, resulting in 150 μl 1× dilutions. The plate was incubated for up to 72 h at 37° C. […] Absorbance was read at 490 nm on an ELISA plate reader with Microplate Manager (Bio-Rad, Richmond, Calif.). Proliferation curves for HMVECs were determined, and measurements were obtained and compared in the log proliferation phase, which was 3 days (t=72 h) for the conditions described. […]

human lung cancer = test: Human lung cancer xenograft model; assay type: in vivo
From the text: (§2) ICA was extensively biotransformed and converted to at least three metabolites: Icariside II (molecule weight=514), Icaritin (molecule weight=368), and Desmethylicaritin (molecule weight=354). […] Icaritin and Desmethylicaritin have huge potentials to be developed as novel and broad anti cancer drugs.
FIG. 2. Response of Human Lung tumor to treatment with Icaritin and Desmethyliciarityn.

human colon cancer = test: Human colon cancer xenograft model; assay type: in vivo
From the text: as §2
FIG. 3. Response of Human Colon tumor to treatment with Icaritin and Desmethyliciarityn.

human prostate cancer = test: Human prostate cancer xenograft model; assay type: in vivo
From the text: as §2
FIG. 1. Response of Human Prostate tumor to treatment with Icaritin and Desmethyliciarityn.

Molecule COc1ccc(-c2oc3c(CC=C(C)C)c(O)cc(O)c3c(=O)c2O)cc1 [Icaritin] has an IC50 (LNCAP) of 5.3 µM, an IC50 (D145) of 9.3 µM and an IC50 (PC3) of 9.4 µM. It also gave an IC50 (Widr) of 10.6 µM, an IC50 (HT29) of 15.3 µM and an IC50 (CCL-247) of 16.5 µM. The IC50 (MDA-MB-435) was 10.2 µM, the IC50 (BT-549) was 8 µM and the IC50 (MCF-7) was 18.2 µM. For the same molecule, the IC50 (Caki-1) was 7 µM, the IC50 (ACHN) was 9.5 µM and the IC50 (SN12C) was 15.8 µM. The IC50 (SKOV3) was 9.8 µM, the IC50 (IGROV1) was 10.9 µM and the IC50 (Mid PaCa-2) was 8.1 µM. The IC50 (SK-MEL-5) was 9.9 µM, the IC50 (G-361) was 6.9 µM and the IC50 (Raji) was 5.4 µM. The IC50 (Jurkat T cell) was 5.1 µM, the “FAS protein levels (Western blot)” value [1] was “did not influence” and the “inhibition of proliferation and inducing cell apoptosis” value ([2]; 10 uM, HUVECs and HMVECs) was “significant levels of inhibition”. For the same molecule, the EC50 ([2]; Homo sapiens, HMVEC, 72 h, Cell Titer 96 Aqueous assay, read-out: EC50, inhibition of HMVEC proliferation) was 8.7 µM, the “human lung cancer cell growth in vivo” value (human lung cancer) was “strongly inhibiting” and the “human colon cancer cell growth in vivo” value (human colon cancer) was “strongly inhibiting”. For the same molecule, the “human prostate cancer cell growth in vivo” value (human prostate cancer) was “strongly inhibiting”.
